Assay results taken from patent publication US20250302862A1, “SMALL RNA DRUG FOR INHIBITING ACTIVITY OF CANCER CELLS” (Institute of Basic Medical Sciences Chinese Academy of …, priority 2022, published 2025).

Assays:
Format in all cases: cell-based, human
[1] = tested on: pancreatic cancer BXPC-3 cells; test: Cell migration (Transwell); settings: 100 nmol/L, jetPRIME, 72 h
Protocol: (§1) 1) ASPC-1 cells and BXPC-3 cells with a cell density of more than 90% in 10 cm^2 dishes were digested and then resuspended with 1 mL of serum-free medium and counted. 100,000 cells (100 uL) were plated in the upper chamber, and complete medium with 10% FBS was added to the lower chamber of each Transwell chamber. Transfection was performed after 12 h, and the groups (3 wells per group) were divided: • blank control group: 10 uL of jetPRIME Buffer • negative control group (NC group) and experimental group: 10 uL of jetPRIME Buffer was mixed well with 0.5 uL of jetPRIME reagent and 0.5 uL of small RNA and let stand for 15 min, and then was added to each well at a 10 uL system (final concentration 100 nmol/L) • Note: 100 uL of nuclease-free water was added to 2 nmol of small RNA dry powder for dissolution at a storage concentration of 20 umol/L
After 72 h, the medium in upper and lower chambers was discarded. The cells were fixed with paraformaldehyde at room temperature for 15 min, stained with 0.1% crystal violet at room temperature for 15 min, and rinsed with PBS. The cells in the upper chamber were gently wiped off with cotton swabs, and the chamber was dried. A Leica inverted microscope DMi8 was turned on, the 5× objective lens was selected, the parameters were adjusted and the white balance was performed following the manual. Each chamber was photographed, followed by counting and statistic processing.
as §1, with “divided as follows:” for “divided:”

[2] = tested on: pancreatic cancer BXPC-3 cells; test: Cell invasion (Matrigel Transwell); settings: 100 nmol/L, jetPRIME, 72 h
Protocol: 1) Matrigel basement membrane matrix was thawed on crushed ice one night before and diluted with serum-free medium to a final concentration of 200-300 ug/mL. 100 uL of the diluted Matrigel was added to each upper chamber, let stand at 37° C. for 30 min, and the supernatant was aspirated. ASPC-1 cells and BXPC-3 cells with a cell density of more than 90% in 10 cm^2 dishes were digested and resuspended with 1 mL of serum-free medium and counted. 100,000 cells (100 uL) were plated in the upper chamber, and complete medium with 10% FBS was added to the lower chamber of each chamber. […]
1) Matrigel basement membrane matrix was thawed on crushed ice one night before and diluted with serum-free medium to a final concentration of 200-300 ug/mL. […] BXPC-3 cells with a cell density of more than 90% in 10 cm^2 dishes were digested and resuspended with 1 mL of serum-free medium and counted. […]

[3] = tested on: breast cancer MCF7 cells; test: Apoptosis detection (Annexin V / PI); settings: 100 nmol/L, 48 h
Protocol: 1) MCF-7 cells with a cell density of more than 90% in 10 cm^2 dishes were plated in 12-well plates according to the cell growth rate, and transfected after 12 h, and the groups were divided as follows: • blank control group (4 wells): 200 uL of opti-MEM per well • negative control group (NC group) and experimental group (3 wells each): • A. 100 uL of opti-MEM and 2 uL of iMax were mixed well for 5 min • B. 100 uL of opti-MEM and 5 uL of small RNA (final concentration 100 nmol/L) were mixed well • C. solution A and solution B were mixed well and let stand for 15 min, and then was added to each well at a 200 uL system • Note: 100 uL of nuclease-free water was added to 2 nmol of small RNA dry powder for dissolution at a storage concentration of 20 umol/L
The supernatant and cells were collected after 48 h and washed twice with pre-chilled PBS. The 4 tubes of cells in the blank control group were added respectively with: (1) 200 uL of 1× binding buffer; (2) 200 uL of 1× binding buffer and 5 uL of Annexin V stain; (3) 200 uL of 1× binding buffer and 5 uL of PI stain; (4) 200 uL of 1× binding buffer, 5 uL of Annexin V stain and 5 uL of PI stain. […] The live cell population and the position of quadrant gate were selected according to the blank control group, and then the apoptosis of the NC group and the experimental group was detected. […]

With “MDM-sRNA-39: small RNA derived from Maytenus hookeri, sequence GGGAUUGUAGUUCAAUUGGUCAGAGCACC (listed as RNA, chemistry not given here)” the cell migration [1] was “inhibits”, the cell invasion [2] was “inhibits” and the apoptosis [3] was “promotes”.
“MDM-sRNA-163: small RNA derived from Maytenus hookeri, sequence UGACUCUAGUCCGACUUUGUGAAAUGACU (listed as RNA, chemistry not given here)” was tested, and the cell migration [1] was “inhibits”, the cell invasion [2] was “inhibits” and the apoptosis [3] was “promotes”.
